Test results published in ChEMBL document CHEMBL1151757, “Synthesis, radiosynthesis, and biological evaluation of fluorine-18-labeled 2beta-carbo(fluoroalkoxy)-3beta-(3'-((Z)-2-haloethenyl)phenyl)nortropanes: candidate radioligands for in vivo imaging of the serotonin transporter with positron emission tomography” (J Med Chem, 2008).

Assays:
Putamen [1] = experiment: Drug uptake in anesthetized cynomolgus monkey brain putamen after 4.5 mins postinjection; format: ADME, organism-based, Macaca fascicularis; design: unit not given here; conditions: in vivo, 0.075 h
[2] = Drug uptake in anesthetized cynomolgus monkey brain frontal lobe after 65 mins postinjection; format: ADME, organism-based, Macaca fascicularis; conditions: in vivo
Caudate [3] = experiment: Drug uptake in anesthetized cynomolgus monkey brain caudate after 35 mins postinjection; format: ADME, organism-based, Macaca fascicularis, Caudate nucleus; conditions: in vivo
[4] = Ratio of drug uptake in putamen to cerebellum in anesthetized cynomolgus monkey after 75 mins postinjection; format: ADME, organism-based, Macaca fascicularis; conditions: in vivo, 1.25 h
Medulla [5] = experiment: Drug uptake in anesthetized cynomolgus monkey brain medulla after 175 mins postinjection; format: ADME, organism-based, Macaca fascicularis; conditions: in vivo
[6] = Ratio of drug uptake in medulla to cerebellum in anesthetized cynomolgus monkey after 155 mins postinjection; format: ADME, organism-based, Macaca fascicularis; conditions: in vivo
Thalamus [7] = experiment: Drug uptake in anesthetized cynomolgus monkey brain thalamus after 2.5 mins postinjection; format: ADME, organism-based, Macaca fascicularis; design: unit not given here; conditions: in vivo
[8] = Ratio of drug uptake in occipital lobe to cerebellum in anesthetized cynomolgus monkey after 205 mins postinjection; format: ADME, organism-based, Macaca fascicularis; conditions: in vivo
Medulla [9] = experiment: Drug uptake in anesthetized cynomolgus monkey brain medulla after 27.5 mins postinjection; format: ADME, organism-based, Macaca fascicularis; conditions: in vivo
Medulla [10] = experiment: Drug uptake in anesthetized cynomolgus monkey brain medulla after 45 mins postinjection; format: ADME, organism-based, Macaca fascicularis; conditions: in vivo, 0.75 h
[11] = Drug uptake in anesthetized cynomolgus monkey brain cerebellum after 22.5 mins postinjection; format: ADME, organism-based, Macaca fascicularis; conditions: in vivo, 0.375 h
Caudate [12] = experiment: Drug uptake in anesthetized cynomolgus monkey brain caudate after 2.5 mins postinjection; format: ADME, organism-based, Macaca fascicularis, Caudate nucleus; conditions: in vivo
Caudate [13] = experiment: Drug uptake in anesthetized cynomolgus monkey brain caudate after 18.5 mins postinjection; format: ADME, organism-based, Macaca fascicularis, Caudate nucleus; conditions: in vivo
Caudate [14] = experiment: Drug uptake in anesthetized cynomolgus monkey brain caudate after 22.5 mins postinjection; format: ADME, organism-based, Macaca fascicularis, Caudate nucleus; conditions: in vivo, 0.375 h
Caudate [15] = experiment: Drug uptake in anesthetized cynomolgus monkey brain caudate after 45 mins postinjection; format: ADME, organism-based, Macaca fascicularis, Caudate nucleus; conditions: in vivo, 0.75 h
Medulla [16] = experiment: Drug uptake in anesthetized cynomolgus monkey brain medulla after 155 mins postinjection; format: ADME, organism-based, Macaca fascicularis; conditions: in vivo
[17] = Ratio of drug uptake in caudate to cerebellum in anesthetized cynomolgus monkey after 95 mins postinjection; format: ADME, organism-based, Macaca fascicularis; conditions: in vivo
Putamen [18] = experiment: Drug uptake in anesthetized cynomolgus monkey brain putamen after 75 mins postinjection; format: ADME, organism-based, Macaca fascicularis; design: unit not given here; conditions: in vivo, 1.25 h
Midbrain [19] = experiment: Drug uptake in anesthetized cynomolgus monkey brain midbrain after 195 mins postinjection; format: ADME, organism-based, Macaca fascicularis; conditions: in vivo, 3.25 h
Thalamus [20] = experiment: Drug uptake in anesthetized cynomolgus monkey brain thalamus after 105 mins postinjection; format: ADME, organism-based, Macaca fascicularis; design: unit not given here; conditions: in vivo, 1.75 h
Medulla [21] = experiment: Drug uptake in anesthetized cynomolgus monkey brain medulla after 225 mins postinjection; format: ADME, organism-based, Macaca fascicularis; conditions: in vivo, 3.75 h
Pons [22] = experiment: Drug uptake in anesthetized cynomolgus monkey brain pons after 205 mins postinjection; format: ADME, organism-based, Macaca fascicularis; conditions: in vivo
Midbrain [23] = experiment: Drug uptake in anesthetized cynomolgus monkey brain midbrain after 0.5 mins postinjection; format: ADME, organism-based, Macaca fascicularis; design: unit not given here; conditions: in vivo
Thalamus [24] = experiment: Drug uptake in anesthetized cynomolgus monkey brain thalamus after 125 mins postinjection; format: ADME, organism-based, Macaca fascicularis; design: unit not given here; conditions: in vivo
Midbrain [25] = experiment: Drug uptake in anesthetized cynomolgus monkey brain midbrain after 215 mins postinjection; format: ADME, organism-based, Macaca fascicularis; conditions: in vivo
Thalamus [26] = experiment: Drug uptake in anesthetized cynomolgus monkey brain thalamus after 18.5 mins postinjection; format: ADME, organism-based, Macaca fascicularis; design: unit not given here; conditions: in vivo
Medulla [27] = experiment: Drug uptake in anesthetized cynomolgus monkey brain medulla after 12.5 mins postinjection; format: ADME, organism-based, Macaca fascicularis; conditions: in vivo
[28] = Ratio of drug uptake in occipital lobe to cerebellum in anesthetized cynomolgus monkey after 18.5 mins postinjection; format: ADME, organism-based, Macaca fascicularis; conditions: in vivo
[29] = Ratio of drug uptake in occipital lobe to cerebellum in anesthetized cynomolgus monkey after 4.5 mins postinjection; format: ADME, organism-based, Macaca fascicularis; conditions: in vivo, 0.075 h
Pons [30] = experiment: Drug uptake in anesthetized cynomolgus monkey brain pons after 35 mins postinjection; format: ADME, organism-based, Macaca fascicularis; conditions: in vivo
Midbrain [31] = experiment: Drug uptake in anesthetized cynomolgus monkey brain midbrain after 6.5 mins postinjection; format: ADME, organism-based, Macaca fascicularis; design: unit not given here; conditions: in vivo
Caudate [32] = experiment: Drug uptake in anesthetized cynomolgus monkey brain caudate after 155 mins postinjection; format: ADME, organism-based, Macaca fascicularis, Caudate nucleus; conditions: in vivo
Medulla [33] = experiment: Drug uptake in anesthetized cynomolgus monkey brain medulla after 165 mins postinjection; format: ADME, organism-based, Macaca fascicularis; conditions: in vivo, 2.75 h
Medulla [34] = experiment: Drug uptake in anesthetized cynomolgus monkey brain medulla after 4.5 mins postinjection; format: ADME, organism-based, Macaca fascicularis; conditions: in vivo, 0.075 h
Midbrain [35] = experiment: Drug uptake in anesthetized cynomolgus monkey brain midbrain after 155 mins postinjection; format: ADME, organism-based, Macaca fascicularis; conditions: in vivo
Thalamus [36] = experiment: Drug uptake in anesthetized cynomolgus monkey brain thalamus after 95 mins postinjection; format: ADME, organism-based, Macaca fascicularis; design: unit not given here; conditions: in vivo
Putamen [37] = experiment: Drug uptake in anesthetized cynomolgus monkey brain putamen after 195 mins postinjection; format: ADME, organism-based, Macaca fascicularis; conditions: in vivo, 3.25 h
Midbrain [38] = experiment: Drug uptake in anesthetized cynomolgus monkey brain midbrain after 45 mins postinjection; format: ADME, organism-based, Macaca fascicularis; design: unit not given here; conditions: in vivo, 0.75 h
[39] = Ratio of drug uptake in frontal lobe to cerebellum in anesthetized cynomolgus monkey after 195 mins postinjection; format: ADME, organism-based, Macaca fascicularis; conditions: in vivo, 3.25 h
Pons [40] = experiment: Drug uptake in anesthetized cynomolgus monkey brain pons after 45 mins postinjection; format: ADME, organism-based, Macaca fascicularis; conditions: in vivo, 0.75 h
[41] = Ratio of drug uptake in putamen to cerebellum in anesthetized cynomolgus monkey after 155 mins postinjection; format: ADME, organism-based, Macaca fascicularis; conditions: in vivo
Caudate [42] = experiment: Drug uptake in anesthetized cynomolgus monkey brain caudate after 85 mins postinjection; format: ADME, organism-based, Macaca fascicularis, Caudate nucleus; conditions: in vivo
[43] = Ratio of drug uptake in putamen to cerebellum in anesthetized cynomolgus monkey after 3.5 mins postinjection; format: ADME, organism-based, Macaca fascicularis; conditions: in vivo
[44] = Ratio of drug uptake in pons to cerebellum in anesthetized cynomolgus monkey after 195 mins postinjection; format: ADME, organism-based, Macaca fascicularis; conditions: in vivo, 3.25 h
[45] = Ratio of drug uptake in medulla to cerebellum in anesthetized cynomolgus monkey after 85 mins postinjection; format: ADME, organism-based, Macaca fascicularis; conditions: in vivo
Thalamus [46] = experiment: Drug uptake in anesthetized cynomolgus monkey brain thalamus after 12.5 mins postinjection; format: ADME, organism-based, Macaca fascicularis; design: unit not given here; conditions: in vivo
Caudate [47] = experiment: Drug uptake in anesthetized cynomolgus monkey brain caudate after 55 mins postinjection; format: ADME, organism-based, Macaca fascicularis, Caudate nucleus; conditions: in vivo
[48] = Drug uptake in anesthetized cynomolgus monkey brain occipital lobe after 0.5 mins postinjection; format: ADME, organism-based, Macaca fascicularis; conditions: in vivo
Caudate [49] = experiment: Drug uptake in anesthetized cynomolgus monkey brain caudate after 65 mins postinjection; format: ADME, organism-based, Macaca fascicularis, Caudate nucleus; conditions: in vivo
[50] = Drug uptake in anesthetized cynomolgus monkey brain frontal lobe after 165 mins postinjection; format: ADME, organism-based, Macaca fascicularis; conditions: in vivo, 2.75 h
[51] = Ratio of drug uptake in midbrain to cerebellum in anesthetized cynomolgus monkey after 145 mins postinjection; format: ADME, organism-based, Macaca fascicularis; conditions: in vivo
[52] = Ratio of drug uptake in midbrain to cerebellum in anesthetized cynomolgus monkey after 22.5 mins postinjection; format: ADME, organism-based, Macaca fascicularis; conditions: in vivo, 0.375 h
[53] = Ratio of drug uptake in medulla to cerebellum in anesthetized cynomolgus monkey after 0.5 mins postinjection; format: ADME, organism-based, Macaca fascicularis; conditions: in vivo
Thalamus [54] = experiment: Drug uptake in anesthetized cynomolgus monkey brain thalamus after 85 mins postinjection; format: ADME, organism-based, Macaca fascicularis; design: unit not given here; conditions: in vivo
[55] = Drug uptake in anesthetized cynomolgus monkey brain occipital lobe after 225 mins postinjection; format: ADME, organism-based, Macaca fascicularis; conditions: in vivo, 3.75 h

With `O=C(OCC[18F])C1C2CCC(CC1c1ccc(/C=C\I)cc1)N2` (stereo unspecified) the Drug uptake (Putamen [1]) was 1.18, the Drug uptake [2] was 2.03 and the Drug uptake (Caudate [3]) was 2.33. It also gave a Ratio [4] of 1.8, a Drug uptake (Medulla [5]) of 3.52 and a Ratio [6] of 2.5. For the same molecule, the Drug uptake (Thalamus [7]) was 0.4, the Ratio [8] was 1.4 and the Drug uptake (Medulla [9]) was 3.35. For the same molecule, the Drug uptake (Medulla [10]) was 3.69, the Drug uptake [11] was 2.63 and the Drug uptake (Caudate [12]) was 0.29. It also gave a Drug uptake (Caudate [13]) of 1.84, a Drug uptake (Caudate [14]) of 2.05 and a Drug uptake (Caudate [15]) of 2.58. For the same molecule, the Drug uptake (Medulla [16]) was 3.73, the Ratio [17] was 1.4 and the Drug uptake (Putamen [18]) was 4.28. For the same molecule, the Drug uptake (Midbrain [19]) was 4.56, the Drug uptake (Thalamus [20]) was 4.11 and the Drug uptake (Medulla [21]) was 3.24. The Drug uptake (Pons [22]) was 3.34, the Drug uptake (Midbrain [23]) was 0 and the Drug uptake (Thalamus [24]) was 4.04. For the same molecule, the Drug uptake (Midbrain [25]) was 4.63, the Drug uptake (Thalamus [26]) was 2.7 and the Drug uptake (Medulla [27]) was 2.59. For the same molecule, the Ratio [28] was 0.7, the Ratio [29] was 0.8 and the Drug uptake (Pons [30]) was 2.74. For the same molecule, the Drug uptake (Midbrain [31]) was 1.74, the Drug uptake (Caudate [32]) was 3.03 and the Drug uptake (Medulla [33]) was 3.58. It also gave a Drug uptake (Medulla [34]) of 1.36, a Drug uptake (Midbrain [35]) of 4.65 and a Drug uptake (Thalamus [36]) of 4.15. For the same molecule, the Drug uptake (Putamen [37]) was 4.01, the Drug uptake (Midbrain [38]) was 3.76 and the Ratio [39] was 1.3. It also gave a Drug uptake (Pons [40]) of 3.09, a Ratio [41] of 2.8 and a Drug uptake (Caudate [42]) of 3.03. It also gave a Ratio [43] of 1, a Ratio [44] of 2.6 and a Ratio [45] of 1.8. It also gave a Drug uptake (Thalamus [46]) of 2.29, a Drug uptake (Caudate [47]) of 2.73 and a Drug uptake [48] of 0. The Drug uptake (Caudate [49]) was 2.87.

For `O=C(OCC[18F])C1C2CCC(CC1c1cccc(/C=C\I)c1)N2` (stereo unspecified), the Drug uptake (Putamen [1]) was 1.53, the Drug uptake [50] was 1.81 and the Drug uptake [2] was 2.78. For the same molecule, the Drug uptake (Caudate [3]) was 3.54, the Ratio [4] was 1.4 and the Drug uptake (Medulla [5]) was 2.78. The Ratio [51] was 2.1, the Drug uptake (Thalamus [7]) was 0.43 and the Ratio [52] was 1.1. For the same molecule, the Ratio [53] was 1.6, the Drug uptake (Medulla [9]) was 3.97 and the Drug uptake (Medulla [10]) was 4. The Drug uptake [11] was 4.02, the Drug uptake (Caudate [12]) was 0.37 and the Drug uptake (Caudate [13]) was 3.07. The Drug uptake (Caudate [14]) was 3.32, the Drug uptake (Caudate [15]) was 3.67 and the Drug uptake (Medulla [16]) was 2.98. It also gave a Ratio [17] of 1.3, a Drug uptake (Putamen [18]) of 4.28 and a Drug uptake (Thalamus [54]) of 4.04. The Drug uptake (Thalamus [20]) was 3.74, the Drug uptake (Medulla [21]) was 2.37 and the Drug uptake (Midbrain [23]) was 0. It also gave a Drug uptake (Thalamus [24]) of 3.41, a Drug uptake (Midbrain [25]) of 3.12 and a Drug uptake (Thalamus [26]) of 3.7. It also gave a Drug uptake (Medulla [27]) of 3.37, a Ratio [28] of 0.7 and a Ratio [29] of 0.6. It also gave a Drug uptake (Pons [30]) of 3.29, a Drug uptake (Midbrain [31]) of 2.99 and a Drug uptake (Caudate [32]) of 2.62. The Drug uptake (Medulla [33]) was 2.88, the Drug uptake (Medulla [34]) was 1.8 and the Drug uptake (Midbrain [35]) was 3.66. The Drug uptake (Thalamus [36]) was 3.91, the Drug uptake (Midbrain [38]) was 4.9 and the Drug uptake (Pons [40]) was 3.34. For the same molecule, the Ratio [41] was 1.8, the Drug uptake (Caudate [42]) was 3.53 and the Drug uptake [55] was 1.22. It also gave a Ratio [45] of 1.3, a Drug uptake (Thalamus [46]) of 3.32 and a Drug uptake (Caudate [47]) of 3.72. It also gave a Drug uptake [48] of 0 and a Drug uptake (Caudate [49]) of 3.67.
